The experiment deals with human A2A receptor (A2AR) (Homo sapiens, UniProt P29274). Kind of experiment: Luciferase reporter assay (HEK293-A2AR-luc2p/CRE/Hygro cells, 3 nM CGS21680). The experiment is classed as cell-based. To be noted: 3 nM CGS21680, 5 h incubation. A digest of the protocol: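 HEK293 cells stably expressing A2AR with a CRE-luc2P reporter were seeded in 1% FBS with 1 U/mL adenosine deaminase. After 18 h, cells got 3 nM CGS21680 plus antagonist at 0.1–10000 nM for 5 h, followed by a luciferase readout. IC50 is relative to the 3 nM CGS21680 signal, set as 100%.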
(In general: A reporter such as luciferase makes a cellular process visible.)

Drawing on patent publication US20210300936A1, “PYRAZOLOTRIAZOLOPYRIMIDINE DERIVATIVES AS A2A RECEPTOR ANTAGONIST” (BEIGENE, LTD., priority 2018, published 2021), this text covers IC50 for eleven compounds.

By IC50 is commonly meant the concentration at which inhibition is half-maximal. The low end stands for inhibition by little substance, the high end for a need for much substance.

The structures appear in SMILES notation.

Sequence of human A2A receptor (A2AR) (P29274 whole entry): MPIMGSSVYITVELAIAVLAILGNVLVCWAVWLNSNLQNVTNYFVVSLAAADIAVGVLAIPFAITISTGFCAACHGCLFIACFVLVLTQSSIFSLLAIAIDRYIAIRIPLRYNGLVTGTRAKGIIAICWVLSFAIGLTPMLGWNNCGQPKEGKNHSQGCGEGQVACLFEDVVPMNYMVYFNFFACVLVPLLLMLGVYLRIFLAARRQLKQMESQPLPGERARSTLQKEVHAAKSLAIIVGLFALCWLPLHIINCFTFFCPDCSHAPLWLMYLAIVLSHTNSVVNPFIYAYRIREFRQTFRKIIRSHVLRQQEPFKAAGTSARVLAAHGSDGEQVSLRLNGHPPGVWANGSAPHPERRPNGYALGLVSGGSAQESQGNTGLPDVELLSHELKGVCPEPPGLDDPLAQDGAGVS

Consider `Nc1nc2c(cnn2C(C(=O)N2CCc3cc(F)ccc3C2)c2ccccc2)c2nc(-c3ccco3)nn12` (single isomer, unassigned) [Compound B7b], for which the IC50 came out at 0.5 nM. Next, `CCCCC(C(=O)N1CCN(c2ccc(OCCOCCOC)cc2)CC1)n1ncc2c1nc(N)n1nc(-c3ccco3)nc21` (single isomer, unassigned) [Compound A11b]: 121 nM. Regarding `COCCOc1ccc(N2CCN(C(=O)C(C)(c3cccc(C)c3)n3ncc4c3nc(N)n3nc(-c5ccco5)nc43)CC2)cc1` (centres unmarked) [Compound A75, 2-(5-amino-2-(furan-2-yl)-7H-pyrazolo[4,3-e][1,2,4]triazolo[1,5-c]pyrimidin-7-yl)-1-(4-(4-(2-methoxyethoxy)phenyl)piperazin-1-yl)-2-(m-tolyl)propan-1-one], the IC50 amounted to 6.4 nM.

Compound `CC(C(=O)N1CCN(c2ccc(OCCN3CCCC3)cc2)CC1)(c1ccccc1)n1ncc2c1nc(N)n1nc(-c3ccco3)nc21` (centres unmarked) [Compound A101, 2-(5-amino-2-(furan-2-yl)-7H-pyrazolo[4,3-e][1,2,4]triazolo[1,5-c]pyrimidin-7-yl)-2-phenyl-1-(4-(4-(2-(pyrrolidin-1-yl)ethoxy)phenyl)piperazin-1-yl)propan-1-one] returned a concentration for half-maximal inhibition (IC50) of 3.9 nM. The compound `COCCOc1ccc(N2CCN(C(=O)C(c3cccc(OC)c3)n3ncc4c3nc(N)n3nc(-c5ccco5)nc43)CC2)cc1` (centres unmarked) [Compound A41, 2-(5-amino-2-(furan-2-yl)-7H-pyrazolo[4,3-e][1,2,4]triazolo[1,5-c]pyrimidin-7-yl)-1-(4-(4-(2-methoxyethoxy)phenyl)piperazin-1-yl)-2-(3-methoxyphenyl)ethan-1-one] yielded a half-maximal inhibitory concentration (IC50) of 5.8 nM.

Compound `CN(C)CCOc1ccc(N2CCN(C(=O)C(C)(c3ccccc3)n3ncc4c3nc(N)n3nc(-c5ccco5)nc43)CC2)cc1` (single isomer, unassigned) [Compound A71b] yielded an IC50 of 4.8 nM. `CNCCOc1ccc(N2CCN(C(=O)C(C)(c3ccccc3)n3ncc4c3nc(N)n3nc(-c5ccco5)nc43)CC2)cc1` (centres unmarked) [Compound A107, 2-(5-amino-2-(furan-2-yl)-7H-pyrazolo[4,3-e][1,2,4]triazolo[1,5-c]pyrimidin-7-yl)-1-(4-(4-(2-(methylamino)ethoxy)phenyl)piperazin-1-yl)-2-phenylpropan-1-one] gave an IC50 of 4.8 nM.

As for `COCCOc1ccc2c(c1)CCN(C(=O)C(c1ccccc1)n1ncc3c1nc(N)n1nc(-c4ccco4)nc31)C2` (centres unmarked) [Compound B15, 2-(5-amino-2-(furan-2-yl)-7H-pyrazolo[4,3-e][1,2,4]triazolo[1,5-c]pyrimidin-7-yl)-1-(6-(2-methoxyethoxy)-3,4-dihydroisoquinolin-2(1H)-yl)-2-phenylethan-1-one], the midpoint of inhibition, the IC50, lay at 2.2 nM. The figure for `CC(C(=O)N1CCN(c2ccc(OCCCN3CCCC3)cc2)CC1)(c1ccccc1)n1ncc2c1nc(N)n1nc(-c3ccco3)nc21` (centres unmarked) [Compound A79, 2-(5-amino-2-(furan-2-yl)-7H-pyrazolo[4,3-e][1,2,4]triazolo[1,5-c]pyrimidin-7-yl)-2-phenyl-1-(4-(4-(3-(pyrrolidin-1-yl)propoxy)phenyl)piperazin-1-yl)propan-1-one] is 7.1 nM. For the compound `CN1CCN(CCCOc2ccc(N3CCN(C(=O)[C@@](C)(c4ccccc4)n4ncc5c4nc(N)n4nc(-c6ccco6)nc54)CC3)cc2)CC1` [Compound A82b, (R)-2-(5-amino-2-(furan-2-yl)-7H-pyrazolo[4,3-e][1,2,4]triazolo[1,5-c]pyrimidin-7-yl)-1-(4-(4-(3-(4-methylpiperazin-1-yl)propoxy)phenyl)piperazin-1-yl)-2-phenylpropan-1-one], the midpoint of inhibition, the IC50, lay at 4.9 nM. In turn, `COCCOc1cccc2c1CN(C(=O)C(c1ccccc1)n1ncc3c1nc(N)n1nc(-c4ccco4)nc31)CC2` (centres unmarked) [Compound B16, 2-(5-amino-2-(furan-2-yl)-7H-pyrazolo[4,3-e][1,2,4]triazolo[1,5-c]pyrimidin-7-yl)-1-(8-(2-methoxyethoxy)-3,4-dihydroisoquinolin-2(1H)-yl)-2-phenylethan-1-one] displayed a 50% inhibitory concentration (IC50) of 5.6 nM.
